For test [1], the target named is T1, Angiotensin-converting enzyme (Homo sapiens, UniProt P12821). Nature of the test: Inhibitory concentration (isomer A) against Angiotensin I converting enzyme.
For test [2], the target named is T1, Angiotensin-converting enzyme. Nature of the test: Inhibitory concentration (isomer B) against Angiotensin I converting enzyme.
The target is the same in test [3]. Nature of the test: Inhibitory concentration against Angiotensin I converting enzyme; IA is Inactive with 0% inhibition at 3.3 x 10e-4;.
The target is the same in test [4]. As to the kind of experiment: Inhibitory concentration against Angiotensin I converting enzyme.

T1 sequence (P12821 whole entry): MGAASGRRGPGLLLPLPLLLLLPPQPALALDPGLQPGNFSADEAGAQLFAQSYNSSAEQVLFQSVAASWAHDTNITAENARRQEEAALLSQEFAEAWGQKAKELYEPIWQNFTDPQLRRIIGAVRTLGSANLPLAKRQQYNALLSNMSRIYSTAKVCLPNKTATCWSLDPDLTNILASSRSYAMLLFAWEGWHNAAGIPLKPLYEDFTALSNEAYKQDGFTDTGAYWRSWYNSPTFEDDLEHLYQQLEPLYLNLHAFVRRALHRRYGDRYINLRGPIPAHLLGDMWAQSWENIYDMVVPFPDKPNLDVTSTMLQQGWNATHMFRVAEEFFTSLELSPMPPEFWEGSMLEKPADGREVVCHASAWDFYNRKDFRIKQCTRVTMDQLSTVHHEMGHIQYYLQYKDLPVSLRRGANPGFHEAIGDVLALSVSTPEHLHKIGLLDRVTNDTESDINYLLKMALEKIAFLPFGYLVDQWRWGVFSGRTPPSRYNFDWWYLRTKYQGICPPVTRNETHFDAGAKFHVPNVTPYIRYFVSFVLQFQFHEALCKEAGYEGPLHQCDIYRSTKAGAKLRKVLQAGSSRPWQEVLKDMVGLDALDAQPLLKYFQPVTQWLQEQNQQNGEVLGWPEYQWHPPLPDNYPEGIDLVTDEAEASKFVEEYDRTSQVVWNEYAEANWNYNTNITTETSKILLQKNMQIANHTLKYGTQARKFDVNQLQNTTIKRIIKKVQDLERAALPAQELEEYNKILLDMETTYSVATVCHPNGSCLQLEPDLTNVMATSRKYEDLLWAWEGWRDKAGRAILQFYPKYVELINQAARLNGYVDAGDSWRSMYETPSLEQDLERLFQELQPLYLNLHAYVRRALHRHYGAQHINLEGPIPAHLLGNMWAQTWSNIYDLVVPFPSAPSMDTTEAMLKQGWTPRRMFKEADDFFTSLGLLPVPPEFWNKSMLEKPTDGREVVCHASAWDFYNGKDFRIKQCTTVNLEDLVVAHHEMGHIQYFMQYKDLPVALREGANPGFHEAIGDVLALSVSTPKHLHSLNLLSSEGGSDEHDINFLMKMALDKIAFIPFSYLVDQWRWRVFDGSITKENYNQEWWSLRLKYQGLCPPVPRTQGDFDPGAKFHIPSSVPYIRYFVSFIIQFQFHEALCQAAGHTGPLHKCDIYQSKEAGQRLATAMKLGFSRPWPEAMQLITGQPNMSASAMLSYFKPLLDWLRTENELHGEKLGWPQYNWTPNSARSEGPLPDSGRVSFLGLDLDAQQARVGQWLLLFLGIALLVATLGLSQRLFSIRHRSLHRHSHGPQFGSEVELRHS

As to `O=C(O)CN1CCCCCCC(NC(CCc2ccccc2)C(=O)O)C1=O` (stereo unspecified), the IC50 (in general, the midpoint of a concentration-inhibition curve) in test [1] came out at 1.3 µM; in test [2], 0.0081 µM.

In test [2], `O=C(O)CN1CCCCC[C@H](N[C@@H](CCc2ccccc2)C(=O)O)C1=O` registered an IC50 of 0.002 µM. Turning to `O=C(O)CN1CCCC(NC(CCc2ccccc2)C(=O)O)C1=O` (stereo unspecified), the figures for the IC50 in test [1] and in test [2] were 0.43 µM and 1.7 µM, respectively. Turning to `NC1CCN(CC(=O)O)C1=O` (stereo unspecified), in test [3], the IC50 entry is recorded as “Not Active”.

As to `O=C(O)CN1CCCCC(NC(CCc2ccccc2)C(=O)O)C1=O` (stereo unspecified), the results for the IC50 in test [1] and in test [2] were 0.7 µM and 0.019 µM, respectively.

As for `O=C(O)CN1CCC(NC(CCc2ccccc2)C(=O)O)C1=O` (stereo unspecified), the values for the IC50 in test [1] and in test [2] were 12 µM and 19 µM, respectively. For `NC1CCCCN(CC(=O)O)C1=O` (stereo unspecified), in test [4], the IC50 is 480 µM. Take `O=C(O)CN1CCCCC[C@@H](N[C@H](CCc2ccccc2)C(=O)O)C1=O`: the IC50 in test [2] was determined as 0.092 µM. This counts as double-digit nanomolar.

Consider `O=C(O)CN1CCCCCC(NC(CCc2ccccc2)C(=O)O)C1=O` (stereo unspecified), for which the IC50 in test [1] was determined as 1.7 µM; in test [2], 0.0048 µM. In test [4], `NC1CCCCCN(CC(=O)O)C1=O` (stereo unspecified) showed an IC50 of 440 µM. Still for that read-out and setting: the result for `NC1CCCN(CC(=O)O)C1=O` (stereo unspecified) reads 1700 µM.

The values above are taken from ChEMBL document CHEMBL1123398, “Conformationally restricted inhibitors of angiotensin converting enzyme: synthesis and computations” (J Med Chem, 1986).
